Our source for the inhibition and IC50 values is patent US9795601B2, “Compositions and methods for cancer treatment” (BIOVISTA, INC., priority 2010, dated 2017).

Holding throughout (format): cell-based
For one assay, the system named is C32 (Melanoma). Kind of assay: Cancer cell lines assay (Alamar Blue, day 5), C32. Conditions: Homo sapiens, C32 cells. As to the method:
(§1) EXAMPLE. Cancer cell lines assay. Compounds are assayed for IC50 over a range of 50 nM to 1 mM, in triplicate, in standard 96-well plates. Initially, the number of cells in each line to plate on day 0 is determined, in order to have <80% confluency on day 5. Cells are plated on day 0. Cells are allowed to adhere 4 hours prior to adding the compound. On day 5 Alamar Blue is added to the media of the cells at 10% of the total volume of the well and incubated for approximately 4 hours at tissue culture conditions. The Alamar Blue reagent consists of an oxidation-reduction indicator that yields a colorimetric change and a fluorescent signal in response to metabolic activity. The dose response curves is evaluated in a BioTek Synergy 2 plate reader. The readout fluorescence values are then be exported to spreedsheet software, such as Microsoft Excel or GraphPad, and are graphed to show the reduction in relative cell number in response to compounds added to culture. Maximum inhibition is expressed as the maximum of:
(§2) [formula] over all dosages tested for each drug.
(§3) EXAMPLE. Linezolid is diluted in DMSO. One vial is thawed and administered on day 0, at concentrations 10 μM to 1 mM. Paclitaxel (0.1 μM) is used as a positive control. DMSO alone is used as a negative control. […]

For a further assay, the system named is SW-579 (Thyroid Cancer). Kind of assay: Cancer cell lines assay (Alamar Blue, day 5), SW-579. The following applies: SW579; SW-579 cells, Linezolid concentration 412 μM, negative control DMSO, p 0.0490; read-out: Linezolid % Maximum inhibition relative to negative control. As to the method: as §1, §2, §3
(In general: The colour change of resazurin is a common sign of viable cells or microbes.)

For another assay, the system named is HT-144 (Melanoma). Kind of assay: Cancer cell lines assay (Alamar Blue, day 5), HT-144. Conditions: Homo sapiens. As to the method: as §1, §2
(§4) EXAMPLE. Linezolid is diluted in DMSO. One vial is thawed and administered on day 0, at concentrations 10 μM to 1 mM. Paclitaxel (0.1 μM) is used as a positive control. DMSO alone is used as a negative control. On day 5 Alamar Blue is added to the media of the cells at 10% of the total volume of the well and incubated for approximately 4 hours at tissue culture conditions.

In a further assay the test system is A172 (Malignant glioma). As to the kind of experiment: Cancer cell lines assay (Alamar Blue, day 5), A172. Conditions: Homo sapiens. As to the method:
as §1, §2, §4

Take `CC(=O)NC[C@H]1CN(c2ccc(N3CCOCC3)c(F)c2)C(=O)O1` [Linezolid]: the inhibition at 1000 µM in the assay on C32 (Melanoma) (Linezolid concentration 1 mM, negative control DMSO, p 0.000720, read-out: Linezolid % Maximum inhibition relative to negative control) came to 26.1%; in the assay with HT-144 (Melanoma) (HT-144 cells, Linezolid concentration 1 mM, negative control DMSO, p 0.00250, read-out: Linezolid % Maximum inhibition relative to negative control), 90.7%; in the assay with A172 (Malignant glioma) (A 172, A172 cells, Linezolid concentration 1 mM, negative control DMSO, p 6 × 10^−6, read-out: Linezolid % Maximum inhibition relative to negative control), 81.8%. In addition, the inhibition at 412 µM in the assay on SW-579 (Thyroid Cancer) worked out at 14.5%. Moreover, the IC50 is 500 µM with HT-144 (Melanoma) (120 h, HT-144 (Melanoma) cells, Alamar Blue on day 5, read-out: Linezolid IC50) and 600 to 700 µM in the assay on A172 (Malignant glioma) (A 172, 120 h, A172 (Malignant glioma) cells, Alamar Blue on day 5, read-out: Linezolid IC50).
For `CC(=O)O[C@H]1C(=O)[C@@]2(C)[C@H]([C@H](OC(=O)c3ccccc3)[C@]3(O)C[C@H](OC(=O)[C@H](O)[C@@H](NC(=O)c4ccccc4)c4ccccc4)C(C)=C1C3(C)C)[C@]1(OC(C)=O)CO[C@@H]1C[C@@H]2O` [Paclitaxel], the inhibition at 0.1 µM was 90.8% with C32 (Melanoma) (0.1 μM paclitaxel (positive control), read-out: Paclitaxel % Maximum inhibition relative to negative control); 86.9% in the assay with HT-144 (Melanoma) (HT-144 cells, 0.1 μM paclitaxel (positive control), read-out: Paclitaxel % Maximum inhibition relative to negative control); 92.9% in the assay with A172 (Malignant glioma) (A 172, A172 cells, 0.1 μM paclitaxel (positive control), read-out: Paclitaxel % Maximum inhibition relative to negative control).

Usually inhibition stands for the share of the control response that was lost under treatment. Broadly, the IC50 is the concentration at which inhibition is half-maximal.
